Data as given in patent US9850227B2 (YUHAN CORPORATION, priority 2011, dated 2017).
Counter-ions that a name gives are not always drawn.

Target: T1, human 5-HT4(a) (Homo sapiens, UniProt Q13639)
T1 construct: host or cells: GeneBIAzer HTR4-CRE-bla CHO-K1 cells
Experiment: Evaluation of agonistic activity in CHO-K1 cells expressing human 5-HT4(a) (GeneBIAzer HTR4-CRE-bla CHO-K1 cells, beta-lactamase fluorescence ratio, EC50 from 8 concentrations)
Type: cell-based
Description: Evaluation of Agonistic Activity in CHO-K1 Cells Expressing Human 5-HT4(a)
As CHO-K1 cells stably expressing human 5-HT4(a), we used the GeneBIAzer HTR4-CRE-bla CHO-K1 cells (Invitrogen Corp.). The cells were cultured, under the condition of 37° C. and 5% CO2, in a DMEM supplemented with 10% fetal bovine serum (FBS), 25 mM HEPES (pH7.4), 600 μg/ml hygromycin B, 0.1 mM non-essential amino acids, 100 unit/ml penicillin and 100 μg/ml streptomycin. Subcultures were performed three times per one week, each being at less than 80% confluence. At the previous day before treating test compounds, the cells were collected using 0.5% trypsin/EDTA and then diluted with a DMEM supplemented with 1% FBS, 25 mM HEPES, and 0.1 mM non-essential amino acids into 3.125×10^5 cells/ml. 32 μl of the diluted cells were added into 384-well plate (10^4 cells per well) and then incubated overnight. After the overnight culture, 8 μl of the medium having 1% of DMSO was added into the cell-free control well and the non-stimulating control well, respectively. 8 μl of the respective test compound dilutions (which had been prepared by diluting by 100-times with the medium as mentioned in the above) having 1% of DMSO were added to the respective remaining wells. After being cultured in the incubator for 5 hours, the wells of the 384-plate were treated with the substrate solution (8 μl per well) prepared according to the vendor's instruction (i.e., Invitrogen's instruction), and then incubated in the dark room for additional two hours. Agonistic activities on 5-HT4 receptor were evaluated, on the basis of fluorescence values of the cleavage-products by beta-lactamase. After exciting to 410 nm of wavelength using a fluorescence detector (Genios Pro), we measured the fluorescence values at two emission wavelengths (first wavelength: 465 nm, second wavelength: 535 nm). Data were analyzed on the basis of the ratio of fluorescence intensities of each well at the respective wavelengths. Each EC50 value was calculated by non-linear regression analysis using the “GraphPad Prism” program, based on the activities according to 8-different concentrations of the test compounds.

T1 sequence (Q13639 1-387 isoform Q13639-2): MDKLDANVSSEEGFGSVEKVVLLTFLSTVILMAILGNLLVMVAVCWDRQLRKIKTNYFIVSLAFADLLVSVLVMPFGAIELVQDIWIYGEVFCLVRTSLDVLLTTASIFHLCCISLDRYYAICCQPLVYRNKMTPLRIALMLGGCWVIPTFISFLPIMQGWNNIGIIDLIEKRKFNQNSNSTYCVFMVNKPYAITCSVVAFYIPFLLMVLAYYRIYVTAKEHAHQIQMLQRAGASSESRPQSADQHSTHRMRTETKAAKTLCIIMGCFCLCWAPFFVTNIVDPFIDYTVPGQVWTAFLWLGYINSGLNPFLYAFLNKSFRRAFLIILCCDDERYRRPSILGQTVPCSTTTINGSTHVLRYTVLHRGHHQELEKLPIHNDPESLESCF

Row | EC50 [pM] | Structure (SMILES)
1 | 337 | CCCCc1cc(N2CCC[C@@H](N)C2)nc(Nc2ccc(Cl)c([N+](=O)[O-])c2)n1 [Example 353, (R)-4-(3-aminopiperidin-1-yl)-6-butyl-N-(4-chloro-3-nitrophenyl)pyrimidin-2-amine]
2 | 19 | CCCCc1cc(N2CCC[C@@H](NCC(C)C)C2)nc(Nc2ccc(C)c(C#N)c2)n1 [Example 302, (R)-5-({4-butyl-6-[3-(isobutylamino)piperidin-1-yl]pyrimidin-2-yl}amino)-2-methylbenzonitrile]
3 | 43 | CCCc1cc(N2CCC[C@H](NCCCSC)C2)nc(Nc2ccc(C)c(C#N)c2)n1 [Example 162, (S)-2-methyl-5-{4-[3-(3-methylthiopropylamino)piperidin-1-yl]-6-propylpyrimidin-2-ylamino}benzonitrile]
4 | 88 | CCCc1cc(N2CCC[C@H](NCC3CC3)C2)nc(Nc2ccc(C)c(C#N)c2)n1 [Example 163, (S)-5-{4-[3-(cyclopropylmethylamino)piperidin-1-yl]-6-propylpyrimidin-2-ylamino}-2-methylbenzonitrile]
5 | 25 | CCCCc1cc(N2CCC[C@@H](NCCC(C)C)C2)nc(Nc2ccc(C)c(C#N)c2)n1 [Example 303, (R)-5-({4-butyl-6-[3-(isopentylamino)piperidin-1-yl]pyrimidin-2-yl}amino)-2-methylbenzonitrile]
6 | 61 | CCCc1cc(N2CCCCC2)nc(Nc2ccc3cc[nH]c3c2)n1 [Example 76, N-[4-(piperidin-1-yl)-6-propylpyrimidin-2-yl]-1H-indol-6-amine]
7 | 88 | CCCc1cc(N2CCC[C@@H](NCC3CC3)C2)nc(Nc2ccc(C)c(C#N)c2)n1 [Example 267, (R)-5-{4-[3-(cyclopropylmethylamino)piperidin-1-yl]-6-propylpyrimidin-2-ylamino}-2-methylbenzonitrile]
8 | 4.4 | CCCc1cc(N2CCC[C@@H](NC)C2)nc(Nc2cc(N)cc(C#N)c2)n1 [Example 286, (R)-3-amino-5-[4-(3-methylaminopiperidin-1-yl)-6-propylpyrimidin-2-ylamino]benzonitrile]
9 | 26 | CCCc1cc(N2CCC[C@@H](NC)C2)nc(Nc2ccc(F)c(C(F)(F)F)c2)n1 [Example 287, (R)-(4-fluoro-3-trifluoromethylphenyl)-[4-(3-methylaminopiperidin-1-yl)-6-propylpyrimidin-2-yl]amine]
10 | 148 | CCCc1cc(N2CCC[C@H](NCc3cc(C)c(C)o3)C2)nc(Nc2ccc(C)c(C#N)c2)n1 [Example 161, (S)-5-(4-{3-[(4,5-dimethylfuran-2-ylmethyl)amino]piperidin-1-yl}-6-propylpyrimidin-2-ylamino)-2-methylbenzonitrile]
11 | 350 | CCCc1cc(N2CCCCC2CCO)nc(Nc2ccc3nc(C(F)(F)F)[nH]c3c2)n1 (stereo not shown) [Example 136, 2-(1-{6-propyl-2-[2-(trifluoromethyl)-1H-benzo[d]imidazol-6-ylamino]pyrimidin-4-yl}piperidin-2-yl)ethanol]
12 | 361 | CCCc1cc(N2CCC[C@H](N)C2)nc(Nc2cccc([N+](=O)[O-])c2)n1 [Example 151, (S)-4-(3-aminopiperidin-1-yl)-N-(3-nitrophenyl)-6-propylpyrimidin-2-amine dihydrochloride]
13 | 112 | CCCCc1cc(N2CCC[C@@H](N)C2)nc(Nc2ccc(N)c(C(F)(F)F)c2)n1 [Example 340, (R)—N^1-[4-(3-aminopiperidin-1-yl)-6-butylpyrimidin-2-yl]-3-(trifluoromethyl)benzene-1,4-diamine]
14 | 14 | CCCCc1cc(N2CCC[C@@H](NC)C2)nc(Nc2ccc(F)c(C#N)c2)n1 [Example 312, (R)-5-({4-butyl-6-[3-(methylamino)piperidin-1-yl]pyrimidin-2-yl}amino)-2-fluorobenzonitrile]
15 | 80 | CCCCc1cc(N2CCC[C@@H](N)C2)nc(Nc2ccc(C)c(OC)c2)n1 [Example 345, (R)-4-(3-aminopiperidin-1-yl)-6-butyl-N-(3-methoxy-4-methylphenyl)pyrimidin-2-amine]
16 | 150 | CCCc1cc(N2CCCCC2)nc(Nc2ccc(C)c([N+](=O)[O-])c2)n1 [Example 47, N-(4-methyl-3-nitrophenyl)-4-(piperidin-1-yl)-6-propylpyrimidin-2-amine]
17 | 16 | CCCc1cc(N2CCC[C@@H](NCC3CCCC3)C2)nc(Nc2ccc(C)c(C#N)c2)n1 [Example 218, (R)-5-{4-[3-(cyclopentylmethylamino)piperidin-1-yl]-6-propylpyrimidin-2-ylamino}-2-methylbenzonitrile]
18 | 17 | CCCCc1cc(N2CCC[C@@H](NC(C)=O)C2)nc(Nc2ccc(F)c(C(F)(F)F)c2)n1 [Example 239, (R)—N-{1-[6-butyl-2-(4-fluoro-3-trifluoromethylphenylamino)pyrimidin-4-yl]piperidin-3-yl}acetamide]
19 | 270 | CCCc1cc(N2CCCCC2)nc(Nc2ccc(Cl)c([N+](=O)[O-])c2)n1 [Example 45, N-(4-chloro-3-nitrophenyl)-4-(piperidin-1-yl)-6-propylpyrimidin-2-amine]
20 | 19 | CCCCCN[C@@H]1CCCN(c2cc(CCCC)nc(Nc3ccc(C)c(C#N)c3)n2)C1 [Example 301, (R)-5-({4-butyl-6-[3-(pentylamino)piperidin-1-yl]pyrimidin-2-yl}amino)-2-methylbenzonitrile]
21 | 14 | CCCCc1cc(N2CCC[C@@H](NC(C)=O)C2)nc(Nc2ccc(F)c(N)c2)n1 [Example 241, (R)—N-{1-[2-(3-amino-4-fluorophenylamino)-6-butylpyrimidin-4-yl]piperidin-3-yl}acetamide]
22 | 8 | CCCc1cc(N2CCC[C@@H](NCC)C2)nc(Nc2ccc(C)c(C#N)c2)n1 [Example 205, (R)-5-{4-[3-(ethylamino)piperidin-1-yl]-6-propylpyrimidin-2-ylamino}-2-methylbenzonitrile]
23 | 18 | CCCc1cc(N2CCCC(NC(C)=O)C2)nc(Nc2ccc(F)c(N)c2)n1 (stereo not shown) [Example 276, N-{1-[2-(3-amino-4-fluorophenylamino)-6-propylpyrimidin-4-yl]piperidin-3-yl}acetamide]
24 | 9.7 | CCCCN[C@@H]1CCCN(c2cc(CCCC)nc(Nc3ccc(C)c(C#N)c3)n2)C1 [Example 300, (R)-5-({4-butyl-6-[3-(butylamino)piperidin-1-yl]pyrimidin-2-yl}amino)-2-methylbenzonitrile]
25 | 86 | CCCCc1cc(N2CCC[C@@H](NC)C2)nc(Nc2ccc(C)c(C)c2)n1 [Example 330, (R)-4-butyl-N-(3,4-dimethylphenyl)-6-[3-(methylamino)piperidin-1-yl]pyrimidin-2-amine]
26 | 280 | CCCc1cc(N2CCCCC2CCO)nc(Nc2ccc(C)c(Cl)c2)n1 (stereo not shown) [Example 140, 2-{1-[2-(3-chloro-4-methylphenylamino}-6-propylpyrimidin-4-yl]piperidin-2-yl}ethanol]
27 | 25 | CCCc1cc(N2CCC[C@@H](NC(=O)CO)C2)nc(Nc2ccc(F)c(C(F)(F)F)c2)n1 [Example 249, (R)—N-(1-{2-[4-fluoro-3-(trifluoromethyl)phenylamino]-6-propylpyrimidin-4-yl}piperidin-3-yl)-2-hydroxyacetamide]
28 | 120 | CCCc1cc(N2CCCCC2CCO)nc(Nc2cccc(C#N)c2)n1 (stereo not shown) [Example 131, 3-{4-[2-(2-hydroxyethyl)piperidin-1-yl]-6-propylpyrimidin-2-ylamino}benzonitrile]
